Tests used:
[1] = molecular target: T1, Human recombinant p38α (Homo sapiens, UniProt Q16539); assay: In vitro enzyme assay, p38α kinase inhibition; format: biochemical; settings: activated p38α, Myelin Basic Protein substrate, 33P ATP
T1 construct: c-myc (N); 6His (N); made in house; host or cells: E. coli (PET vectors)
Experimental: The ability test compounds to inhibit the enzyme p38 kinase was assessed. Activity of the test compound against each of the p38α and […] isoforms of the enzyme was determined.
Human recombinant MKK6 (GenBank Accession Number G1209672) was isolated from Image clone 45578 (Genomics, 1996, 33, 151) and utilised to produce protein in the form of a GST fusion protein in a pGEX vector using analogous procedures to those disclosed by J. Han et al., Journal of Biological Chemistry, 1996, 271, 2886-2891. p38α (GenBank Accession Number G529039) and p38β (GenBank Accession Number G1469305) were isolated by PCR amplification of human lymphoblastoid cDNA (GenBank Accession Number GM1416) and human foetal brain cDNA [synthesised from mRNA (Clontech, catalogue no. 6525-1) using a Gibco superscript cDNA synthesis kit] respectively using oligonucleotides designed for the 5′ and 3′ ends of the human p38α and p38β genes using analogous procedures to those described by J. Han et al., Biochimica et Biophysica Acta, 1995, 1265, 224-227 and Y. Jiang et al., Journal of Biological Chemistry, 1996, 271, 17920-17926.
Both p38 protein isoforms were expressed in E. coli in PET vectors. Human recombinant p38α and p38β isoforms were produced as 5′ c-myc, 6His tagged proteins. Both MKK6 and the p38 proteins were purified using standard protocols: the GST MKK6 was purified using a glutathione sepharose column and the p38 proteins were purified using nickel chelate columns.
The p38 enzymes were activated prior to use by incubation with MKK6 for 3 hours at 30° C. The unactivated E. coli-expressed MKK6 retained sufficient activity to fully activate both isoforms of p38. For p38α, the activation incubate comprised p38α (50 μl of 10 mg/ml), MKK6 (5 μl of 12 mg/ml), ‘Kinase buffer’ [550 μl; pH 7.4 buffer comprising Tris HCl (50 mM), EGTA (0.1 mM), sodium orthovanadate (0.1 mM) and (1-mercaptoethanol (0.1%)], Mg [75 μl of 100 mM Mg(OCOCH3)2] and ATP (75 μl of 1 mM). The activation incubate for p38β was similar to the above except containing […] enzyme (82 μl at 3.05 mg/ml) and 518 μl “Kinase buffer”. p38α and p38β activation incubates were either used fresh or aliquoted and stored at −80° C.
The test compound was solubilised in DMSO (10 mM) and 1:3 serial dilutions in DMSO carried out in polypropylene plates (Costar 3365). Compound dilutions were then diluted 1:10 in “Kinase buffer” and 10 μl transferred to a microtiter assay plate (Costar 3596). Control wells contained 10 μl (1:10 dilution in kinase buffer) DMSO. ‘Kinase Assay Mix’ [[…]; comprising Myelin Basic Protein (Sigma M-1891; 0.5 ml of a 6.66 mg/ml solution in “Kinase buffer”), activated p38α enzyme (3.8 μl) and ‘Kinase Buffer’ (2.55 ml)] was then added. Control wells on each plate either contained the above “Kinase Assay Mix” (n=6 replicates) or contained “Kinase Assay Mix” in which the activated p38 enzyme was replaced by Kinase buffer (n=6 replicates). ‘Labelled ATP’ was then added to all wells […]; comprising 50 μM ATP, 5 μCi ^33P ATP (Amersham International cat. no. AH9968) and 50 mM Mg(OCOCH3)2]. For p38β, 23 μl activated p38β enzyme and “Kinase buffer” (2.53 ml) were included in the “Kinase Assay Mix”. The final concentration of test compound was 2.4 μM-0.001 μM (n=2 replicates). Microtiter plates were incubated at ambient temperature (with gentle agitation) for 60 minutes and the reaction stopped by addition of 20% trichloroacetic acid (TCA) (50 μl). The precipitate protein was captured onto filter plates (PerkinElmer 6005174) using a Packard Filtermate harvester (2% TCA wash) which was then dried overnight and 25 μl MICROSCINT O (Packard O6013611) added to each well. Plates were counted on a Top Count scintillation counter. Dose response curves were generated using an in house automated data analysis package and an Origin curve fitting package.

[2] = test system: TNFα production in human whole blood; assay: Human whole blood assay, inhibition of LPS-stimulated TNFα production; format: cell-based; settings: LPS 10 μg/ml, 6 hours, TNFα by ELISA
Experimental: [formula] (ii) Human Whole Blood
The ability of a test compound to inhibit TNFα production was also assessed in a human whole blood assay. Human whole blood secretes TNFα when stimulated with LPS.
Heparinised (10 units/ml) human blood was obtained from volunteers. 160 μl whole blood was added to 96 well round-bottom plates (Corning 3799). Compounds were solubilised in DMSO at a concentration of 10 mM, diluted 1:100 in “culture medium” [RPMI 1640 medium (Sigma) containing 50 units/ml penicillin, 50 μg/ml streptomycin and 2 mM glutamine] and subsequently serial dilutions were made in culture medium containing 1% DMSO. 20 μl of each test concentration was added to appropriate wells (triplicate cultures)(final concentration dose range of 10 μM-0.0001 μM). 20 μl of RPMI culture medium containing 1% DMSO was added to control wells.
Plates were incubated for 30 minutes at 37° C. (humidified incubator), prior to addition of 20 μl LPS (final concentration 10 μg/ml). Culture medium was added to control wells. Six “LPS alone” and six “medium alone” controls were included on each plate. A known TNFα synthesis/secretion inhibitor was included in each test. Plates were incubated for 6 hours at 37° C. (humidified incubator). Plates were centrifuged (2000 rpm for 10 minutes) and 80 μl plasma removed and stored at −80° C. (Corning 3799 plates). TNFα levels were measured by ELISA using paired antibodies from R&D Systems (catalogue nos. MAB610 and BAF210).

T1 sequence (Q16539 whole entry): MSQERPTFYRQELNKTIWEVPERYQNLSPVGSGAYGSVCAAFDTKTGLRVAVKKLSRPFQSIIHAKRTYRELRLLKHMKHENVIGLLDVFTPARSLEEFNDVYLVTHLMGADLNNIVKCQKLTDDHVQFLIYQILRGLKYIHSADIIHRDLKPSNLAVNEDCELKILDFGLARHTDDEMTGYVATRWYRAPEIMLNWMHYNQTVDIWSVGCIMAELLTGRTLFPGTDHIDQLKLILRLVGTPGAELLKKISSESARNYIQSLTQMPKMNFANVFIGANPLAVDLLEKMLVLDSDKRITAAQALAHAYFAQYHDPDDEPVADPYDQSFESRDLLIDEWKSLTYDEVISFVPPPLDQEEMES

SMILES | IC50 [1] | IC50 [2]
Cc1ccc(C(=O)NC2CC2)cc1NC(=O)c1ccc(OCc2cscn2)c(F)c1 [5[ac], N-{5-[(cyclopropylamino)carbonyl]-2-methylphenyl}-3-fluoro-4-(1,3-thiazol-4-ylmethoxy)benzamide] | 7 nM | 70 nM
COc1ccc(C(=O)Nc2cc(C(=O)NC3CCC3)ccc2C)cc1OC [Comparator Compound X, N-cyclobutyl-3-(3,4-dimethoxybenzamido)-4-methylbenzamide, reference compound] | 4400 nM | > 10000 nM
Cc1ccc(C(=O)NC2CC2)cc1NC(=O)c1ccc(OCc2cn3ccccc3n2)cc1 [5[e], N-cyclopropyl-3-{[4-(imidazo[1,2-a]pyridin-2-ylmethoxy)benzoyl]amino}-4-methylbenzamide] | 10 nM | 520 nM
Cc1ccc(C(=O)NC2CC2)cc1NC(=O)c1ccc(OCc2ncccc2C)cc1 [Example 8, N-cyclopropyl-4-methyl-3-({4-[(3-methylpyridin-2-yl)methoxy]benzoyl}amino)benzamide] | 59 nM | 1800 nM
Cc1ccc(C(=O)NC2CC2)cc1NC(=O)c1cnc(OCc2nccs2)nc1 [23[a], N-{5-[(cyclopropylamino)carbonyl]-2-methylphenyl}-2-(1,3-thiazol-2-ylmethoxy)pyrimidine-5-carboxamide] | 170 nM | 1700 nM
Cc1ccc(C(=O)NC2CC2)cc1NC(=O)c1ccc(OCc2ccccn2)c(F)c1 [5[y], N-{5-[(cyclopropylamino)carbonyl]-2-methylphenyl}-3-fluoro-4-(pyridin-2-ylmethoxy)benzamide] | 6 nM | 140 nM
Cc1nc(COc2ccc(C(=O)Nc3cc(C(=O)NC4CC4)ccc3C)cc2F)cs1 [5[z], N-{5-[(cyclopropylamino)carbonyl]-2-methylphenyl}-3-fluoro-4-[(2-methyl-1,3-thiazol-4-yl)methoxy]benzamide] | 7 nM | 300 nM
